Data set [1] is described as follows: Water absorption of Form I at room temperature for 7 days under various relative humidity conditions. It counts as physicochemical. The method, then: Copper radiation of 1.5418 Å was used. A round aluminum sample holder with zero background was used. All peak positions are within ±0.2 degrees two theta. Karl Fisher analysis was performed according to the known art.

Data set [2] can be described thus: Transformations by heat (XRD and Karl Fisher after heating). It counts as physicochemical. The method, then: (§1) X-Ray powder diffraction data were obtained using a SCINTAG powder X-Ray diffractometer model X'TRA equipped with a solid state detector. Copper radiation of 1.5418 Å was used. A round aluminum sample holder with zero background was used. All peak positions are within ±0.2 degrees two theta.
(§2) Karl Fisher analysis was performed according to the known art.

Data set [3] is described as follows: Water absorption of Form IX after exposure for 10 days to 100% relative humidity at room temperature. It counts as physicochemical. The method, then:
The present invention provides non-hygroscopic crystalline form of ziprasidone mesylate Form IX. Form IX was tested for water absorption after exposure for 10 days to 100% relative humidity at room temperature, as summarized in the following table:
as §2
Ziprasidone mesylate Form IX was exposed to 100% humidity at room temperature for 10 days. Before the exposure the water content was measured to be about 4.8%, while after the exposure the water content was measure to be about 5.0% water. The difference between water content before and after the exposure to 100% humidity is 0.2%.

Data set [4] can be described thus: Water absorption of Form XVIII, 7 days at 30° C. under humidity. It counts as physicochemical. The method, then:
as §1, §2

For data set [5] the following is noted: aqueous medium at ambient temperature; cited from earlier work.
Where [6] appears, read: 60% RH, room temperature, 7 days.
The mark [7] stands for this setting: 80% RH, room temperature, 7 days.
[8] abbreviates: 100% RH, room temperature, 7 days.
Setting [9] is: 100% humidity at room temperature for 10 days.
The mark [10] stands for this setting: heated at TEMP. 90, 30 min, mesylate dihydrate.
The mark [11] stands for this setting: heated at TEMP. 120, 30 min, mesylate dihydrate.

This is an account of results in US20060270684A1, “Crystalline forms of ziprasidone mesylate” (priority 2005, published 2006).

Where a name gives a salt, the structure may show the parent alone.

For the molecule `O=C1Cc2cc(CCN3CCN(c4nsc5ccccc45)CC3)c(Cl)cc2N1` [Form I, ziprasidone mesylate], the “crystal form (by XRD)” value in data set [1] (setting [6]), in data set [1] (setting [7]), in data set [1] (setting [8]) and in data set [1] (Initial) was “Form I” in each case. For the same molecule, the water content (by Karl Fisher) was 2.5% in data set [1] (setting [6]), 3.1% in data set [1] (setting [7]), 4.6% in data set [1] (setting [8]) and 2.3% in data set [1] (Initial). The “stability when tested for water absorption” value in data set [1] (room temperature, 7 days, various relative humidity conditions) is recorded as “stable”.
For `O=C1Cc2cc(CCN3CCN(c4nsc5ccccc45)CC3)c(Cl)cc2N1` [Form II, ziprasidone mesylate], the “RESULT (XRD)” value in data set [2] (heated at TEMP. 90, 30 min) is “Form II”.
For the molecule `O=C1Cc2cc(CCN3CCN(c4nsc5ccccc45)CC3)c(Cl)cc2N1` [Form IX, ziprasidone mesylate], the water content (by Karl Fisher) in data set [3] (100% RH at RT, 10 days) is 5%. In data set [3] (setting [9]), the “difference between water content before and after the exposure” value is recorded as 0.2%; the “water content after the exposure” value is given as “about 5.0%”. In data set [3] (Initial), this molecule displayed a water content (by Karl Fisher) of 4.7%. The “water content before the exposure” value in data set [3] (before exposure to 100% humidity) is reported as “about 4.8%”. In addition, the hygroscopicity result in data set [3] (non-hygroscopic = does not absorb more than 0.2% of water at 80% humidity, 25° C., 24 hours) is “non-hygroscopic”.
Take `O=C1Cc2cc(CCN3CCN(c4nsc5ccccc45)CC3)c(Cl)cc2N1` [Form XVIII, ziprasidone mesylate]: the Water content (by KF) in data set [4] (80% RH, 7 days at 30° C.) was determined as 8.2%; in data set [4] (100% RH, 7 days at 30° C.), 9.1%; in data set [4] (Initial), 2%. The “crystal form (by XRD)” value in data set [4] (80% RH, 7 days at 30° C.) was “Trihydrate”; in data set [4] (80% RH, 7 days at 30° C., listed as form XVIII) it was “transformation to trihydrate”; in data set [4] (100% RH, 7 days at 30° C.), “Trihydrate”; in data set [4] (Initial), “XVIII”. The “water content determined by Karl Fisher” value in data set [4] (80% humidity for 7 days at 30° C.) was “about 8.2%”.
“ziprasidone mesylate dihydrate [Dihydrate Lath]”: the K.F. in data set [2] (setting [10]) is reported as 3.1%; in data set [2] (setting [11]), 0.4%; in data set [2] (heated at TEMP. 140, 30 min) it was 0.3%; in data set [2] (heated at TEMP. 160, 30 min) it was 0.2%; in data set [2] (t = 0 (before heating)), “(t = 0 6.5%)”. The “RESULT (XRD)” value in data set [2] (setting [10]) is “Dihydrate Lath”; in data set [2] (setting [11]), “Dihydrate Lath”; in data set [2] (heated at TEMP. 140, 30 min) it was “Dihydrate Lath”; in data set [2] (heated at TEMP. 160, 30 min, listed as Dihydrate lath, mesylate dihydrate) it was “Transformation from dihydrate lath to Form VI”; in data set [2] (heated at TEMP. 160, 30 min, mesylate dihydrate), “Form VI”.
With “ziprasidone mesylate dihydrate [Dihydrate needle]”, in data set [2] (setting [10]), the K.F. was determined as 3% and the “RESULT (XRD)” value is recorded as “Dihydrate needle”. Also, in data set [2] (setting [11]), the K.F. was 0.5% and the “RESULT (XRD)” value was “Dihydrate needle”.
On to ziprasidone mesylate trihydrate, for which, in data set [5], the “thermodynamic stability among the four crystalline forms of ziprasidone mesylate” value is “most thermodynamically stable form”.
